Laboratory results published in publication PMC8325564 (Biochemistry, 2020).
Where “and” joins values, the source holds several entries; their conditions need not be identical. Equal values may be shown once. Read-outs that look alike come from different tables or passages of the source.

Tests used:
[1] = biological target: T1, AKeco (Escherichia coli, UniProt P69441); details: binding to AKeco; cited from earlier work
[2] = biological target: T2, AK3 (Homo sapiens, UniProt Q9UIJ7); test: isothermal titration calorimetry; type: binding; details: for ΔHITC0: ITC binding enthalpy; for ΔHITC0 / −TΔSITC0 / ΔGITC0 / Kd: 25 °C; for −TΔSITC0: ITC binding entropy term; for ΔGITC0: ITC binding free energy; for n: ITC binding ratio (stoichiometry); for Kd: ITC
T2 sequence (Q9UIJ7 whole entry): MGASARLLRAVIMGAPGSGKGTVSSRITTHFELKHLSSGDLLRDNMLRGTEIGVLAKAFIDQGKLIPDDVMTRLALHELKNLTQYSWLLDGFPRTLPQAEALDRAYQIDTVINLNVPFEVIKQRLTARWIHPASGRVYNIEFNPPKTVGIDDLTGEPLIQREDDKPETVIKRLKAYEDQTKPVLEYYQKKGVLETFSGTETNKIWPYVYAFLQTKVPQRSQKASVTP

[3] = biological target: T2, AK3; test: NMR 15N-HSQC chemical shift titration of ligand binding to AK3
[4] = biological target: T1, AKeco; test: NMR titration of ATP to AKeco with adenosine binding sites blocked by AP5A; design: species or system E. coli
[5] = biological target: human α-synuclein (Homo sapiens, UniProt P37840); test: NMR titration of ATP to α-synuclein; type: binding
[6] = biological target: LcrG (Yersinia pseudotuberculosis serotype I, UniProt P69958); test: biochemical; type: binding
LcrG, sequence (P69958 whole entry, looked up): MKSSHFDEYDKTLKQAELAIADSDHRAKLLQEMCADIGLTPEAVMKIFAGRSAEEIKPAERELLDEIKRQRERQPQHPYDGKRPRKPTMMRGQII

[7] = system: AKeco (E. coli adenylate kinase); details: cited from earlier work
[8] = biological target: T2, AK3; test: biochemical; details: KI´ (competitive inhibition), mixed inhibition model, 1.7 mM ATP, AMP variation
[9] = biological target: T2, AK3; test: coupled enzymatic assay of AK3 activity; type: biochemical
[10] = Table 2, average of three technical replicates, pH 7.0

T1 sequence (P69441 whole entry): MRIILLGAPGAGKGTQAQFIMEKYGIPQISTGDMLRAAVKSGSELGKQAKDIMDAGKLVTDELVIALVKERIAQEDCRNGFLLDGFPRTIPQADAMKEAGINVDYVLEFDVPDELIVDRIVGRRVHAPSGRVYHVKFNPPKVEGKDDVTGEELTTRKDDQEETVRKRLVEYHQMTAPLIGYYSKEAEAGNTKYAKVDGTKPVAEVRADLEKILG

In the case of `Nc1ncnc2c1ncn2[C@@H]1O[C@H](COP(=O)(O)O)[C@@H](O)[C@H]1O` [AMP, adenosine monophosphate], the Kd [1] is given as 210 ± 66 µM.

For `Nc1ncnc2c1ncn2[C@@H]1O[C@H](COP(=O)(O)OP(=O)(O)OP(=O)(O)O)[C@@H](O)[C@H]1O` [ATP, adenosine triphosphate], the ΔHITC0 ([2]; pH 7.0) was −11.1 ± 0.5 kcalmol^−1, the “−TΔSITC0” value ([2]; pH 7.0) was 4.4 ± 0.6 kcalmol^−1 and the ΔGITC0 ([2]; pH 7.0) was −6.7 ± 0.1 kcalmol^−1. For the same compound, the n [2] was 0.94 ± 0.015, the Kd ([2]; 30 mM MOPS pH 7.0, 50 mM NaCl) was ~13000 nM and the Kd [2, 10] was 13000 ± 2000 nM. The Kd [3] was 9 ± 3.8 mM, the Kd [4] was 12 ± 2.1 mM and the Kd [5] was 13 ± 2.4 mM. For the same compound, the Kd [6] was 12 ± 0.8 mM, the Km ([7]; AKeco with ATP) was 63 ± 7 µM and the “difference of the catalytic activity between ATP and GTP” value ([7]; AKeco) was 60 fold. For the same compound, the Kd [1] was 50 µM and the Ki [8] was 200 µM.

For `Nc1nc2c(ncn2[C@@H]2O[C@H](COP(=O)(O)OP(=O)(O)OP(=O)(O)O)[C@@H](O)[C@H]2O)c(=O)[nH]1` [GTP, guanosine triphosphate], the “catalytic GTP versus ATP specificity” value [9] was ~40 fold, the ΔHITC0 ([2]; pH 7.0) was −11.3 ± 0.3 kcalmol^−1 and the “−TΔSITC0” value ([2]; pH 7.0) was 3.5 ± 0.4 kcalmol^−1. For the same compound, the ΔGITC0 ([2]; pH 7.0) was −7.8 ± 0.1 kcalmol^−1, the n [2] was 1.07 ± 0.025 and the Kd ([2]; 30 mM MOPS pH 7.0, 50 mM NaCl) was ~2000 nM and 2000 nM. It also gave a Kd [2, 10] of 2100 ± 500 nM and a Kd [3] of 1.7 ± 1 mM.
